# Measurements: patent publication US9725463B2, “Substituted heterocyclic compounds as CRAC modulators” (LUPIN LIMITED, priority 2013, dated 2017)
# Test system: IL-2 secretion by Jurkat T cells
# Experiment: Inhibition of IL-2 secretion
# Assay type: cell-based
# Details: Homo sapiens; Jurkat T cells stimulated with PHA, 20 to 24 hours, IL-2 by ELISA
# Method: The CRAC channel modulatory activity of the compounds were thus evaluated by measuring the secretion of IL-2 by antigen stimulated T-cells in vitro. Alternatively, such activity can also be evaluated by assay methods known to one skilled in the art.
# Inhibition of IL-2 secretion: Jurkat T cells were seeded at a density of 0.5 to 1 million cells per well in RPMI medium. Test compounds from this invention were added to the cells at different concentrations. This was followed by the addition of PHA, a T cell mitogen after 10 minutes. The cells were then incubated for 20 to 24 hours in a CO2 incubator at 37° C. After incubation with the compounds, cells were centrifuged, the supernatant was collected and processed for ELISA to quantitate the amount of IL-2 secreted. A commercial ELISA kit (R&D Systems, Inc. Minneapolis, Minn., USA) was used to estimate the IL-2 concentrations. Amount of IL-2 secreted by cells stimulated with PHA was considered as a 100% maximal signal and the decrease in amount of IL-2 secreted by cells treated with the test compounds was expressed as percent inhibition of the maximal signal. The dose response data was analyzed using 4-parametric sigmoidal dose response (variable slope) curve-fit.
row,Compound,IC50
1,"CCc1c(-c2cnc(NC(=O)c3c(F)cccc3F)cn2)cnc2c1oc(=O)n2C [Example 6, N-(5-(7-Ethyl-3-methyl-2-oxo-2,3-dihydrooxazolo [4,5-b]pyridin-6-yl)pyrazin-2-yl)-2,6-difluorobenzamide]",100 to 500 nM
2,"Cn1c(=O)oc2c(C3CC3)c(-c3ccc(NC(=O)c4c(F)cccc4F)cc3)ccc21 [Example 23, N-(4-(7-Cyclopropyl-3-methyl-2-oxo-2,3-dihydrobenzo[d]oxazol-6-yl)phenyl)-2,6-difluorobenzamide]",25 to 50 nM
3,"Cn1c(=O)oc2c(C3CC3)c(-c3ccc(NC(=O)c4c(F)cccc4F)nc3)ccc21 [Example 25, N-(5-(7-Cyclopropyl-3-methyl-2-oxo-2,3-dihydrobenzo[d]oxazol-6-yl)pyridin-2-yl)-2,6-difluorobenzamide]",25 to 50 nM
4,"Cn1c(=O)oc2c(C3CC3)c(-c3cnc(NC(=O)c4c(F)cccc4F)cn3)ccc21 [Example 26, N-(5-(7-Cyclopropyl-3-methyl-2-oxo-2,3-dihydrobenzo[d]oxazol-6-yl)pyrazin-2-yl)-2,6-difluorobenzamide]",100 to 500 nM
5,"Cc1cc2oc(=O)n(CC3CC3)c2cc1-c1ccc(NC(=O)c2c(F)cccc2F)cc1 [Example 29, N-(4-(3-(Cyclopropylmethyl)-6-methyl-2-oxo-2,3-dihydrobenzo[d]oxazol-5-yl)phenyl)-2,6-difluorobenzamide]",25 to 50 nM
6,"Cc1cc2oc(=O)n(CCF)c2cc1-c1ccc(NC(=O)c2c(F)cccc2F)cc1 [Example 30, 2,6-Difluoro-N-(4-(3-(2-fluoroethyl)-6-methyl-2-oxo-2,3-dihydrobenzo[d]oxazol-5-yl)phenyl)benzamide]",< 25 nM
7,"Cc1cc2oc(=O)n(C(F)F)c2cc1-c1ccc(NC(=O)c2c(F)cccc2F)cc1 [Example 32, N-(4-(3-(Difluoromethyl)-6-methyl-2-oxo-2,3-dihydrobenzo[d]oxazol-5-yl)phenyl)-2,6-difluorobenzamide]",< 25 nM
8,"Cc1cc2oc(=O)n(CCC(F)(F)F)c2cc1-c1ccc(NC(=O)c2c(F)cccc2F)cc1 [Example 33, 2,6-Difluoro-N-(4-(6-methyl-2-oxo-3-(3,3,3-trifluoropropyl)-2,3-dihydrobenzo[d]oxazol-5-yl)phenyl) benzamide]",100 to 500 nM
9,"Cc1cc2oc(=O)n(C)c2cc1-c1ccc(NC(=O)c2c(F)cccc2Cl)cc1 [Example 46, 2-Chloro-N-(4-(3,6-dimethyl-2-oxo-2,3-dihydrobenzo[d]oxazol-5-yl)phenyl)-6-fluorobenzamide]",25 to 50 nM
10,"Cc1cc2oc(=O)n(C)c2cc1-c1ccc(NC(=O)c2c(C)cccc2F)cc1 [Example 49, N-(4-(3,6-Dimethyl-2-oxo-2,3-dihydrobenzo [d]oxazol-5-yl)phenyl)-2-fluoro-6-methylbenzamide]",25 to 50 nM
11,"Cc1cc2oc(=O)n(C)c2cc1-c1cnc(NC(=O)c2c(F)cccc2F)cn1 [Example 51, N-(5-(3,6-dimethyl-2-oxo-2,3-dihydrobenzo[d]oxazol-5-yl)pyrazin-2-yl)-2,6-difluorobenzamide]",50 to 100 nM
12,"Cc1cc2oc(=O)n(C)c2cc1-c1ccc(NC(=O)c2c(F)cccc2F)nc1 [Example 53, N-(5-(3,6-Dimethyl-2-oxo-2,3-dihydrobenzo [d]oxazol-5-yl)pyridin-2-yl)-2,6-difluoro benzamide]",25 to 50 nM
13,"Cc1cc2oc(=O)n(C)c2cc1-c1ccc(NCc2c(F)cccc2F)cc1 [Example 55, 5-(4-((2,6-Difluorobenzyl)amino)phenyl)-3,6-dimethyl benzo[d] oxazol-2(3H)-one]",< 25 nM

# Second part, the compound after the results:
row,IC50,Compound
1,25 to 50 nM,"Cc1c(-c2ccc(NC(=O)c3c(F)cccc3F)cc2)cnc2c1oc(=O)n2C [Example 1, N-(4-(3,7-Dimethyl-2-oxo-2,3-dihydrooxazolo[4,5-b]pyridin-6-yl)phenyl)-2,6-difluorobenzamide]"
2,< 25 nM,"CCc1c(-c2ccc(NC(=O)c3c(F)cccc3F)cc2)cnc2c1oc(=O)n2C [Example 5, N-(4-(7-Ethyl-3-methyl-2-oxo-2,3-dihydrooxazolo [4,5-b]pyridin-6-yl)phenyl)-2,6-difluorobenzamide]"
3,25 to 50 nM,"Cn1c(=O)oc2c(C3CC3)c(-c3ccc(NC(=O)c4c(F)cccc4F)cc3)cnc21 [Example 9, N-(4-(7-Cyclopropyl-3-methyl-2-oxo-2,3-dihydrooxazolo[4,5-b]pyridin-6-yl)phenyl)-2,6-difluorobenzamide]"
4,50 to 100 nM,"Cc1c(-c2ccc(NC(=O)c3c(F)cccc3F)cc2)ccc2c1oc(=O)n2C [Example 14, N-(4-(3,7-Dimethyl-2-oxo-2,3-dihydrobenzo [d]oxazol-6-yl)phenyl)-2,6-difluorobenzamide]"
5,25 to 50 nM,"CCc1c(-c2ccc(NC(=O)c3c(F)cccc3F)cc2)ccc2c1oc(=O)n2C [Example 16, N-(4-(7-Ethyl-3-methyl-2-oxo-2,3-dihydrobenzo [d]oxazol-6-yl)phenyl)-2,6-difluorobenzamide]"
6,< 25 nM,"Cc1cc2oc(=O)n(C)c2cc1-c1ccc(NC(=O)c2c(F)cccc2F)cc1 [Example 27, N-(4-(3,6-Dimethyl-2-oxo-2,3-dihydrobenzo [d]oxazol-5-yl)phenyl)-2,6-difluorobenzamide]"
7,50 to 100 nM,"CCn1c(=O)oc2cc(C)c(-c3ccc(NC(=O)c4c(F)cccc4F)cc3)cc21 [Example 28, N-(4-(3-Ethyl-6-methyl-2-oxo-2,3-dihydrobenzo[d]oxazol-5-yl)phenyl)-2,6-difluorobenzamide]"
8,< 25 nM,"Cc1cc2oc(=O)n(C(C)C)c2cc1-c1ccc(NC(=O)c2c(F)cccc2F)cc1 [Example 31, 2,6-Difluoro-N-(4-(3-isopropyl-6-methyl-2-oxo-2,3-dihydrobenzo[d]oxazol-5-yl)phenyl)benzamide]"
9,< 25 nM,"CCCn1c(=O)oc2cc(C)c(-c3ccc(NC(=O)c4c(F)cccc4F)cc3)cc21 [Example 34, 2,6-Difluoro-N-(4-(6-methyl-2-oxo-3-propyl-2,3-dihydrobenzo [d]oxazol-5-371)phenyl)benzamide]"
10,< 25 nM,"Cn1c(=O)oc2cc(-c3ccc(NC(=O)c4c(F)cccc4F)cc3)c(C3CC3)nc21 [Example 36, N-(4-(5-Cyclopropyl-3-methyl-2-oxo-2,3-dihydrooxazolo [4,5-b]pyridin-6-yl)phenyl)-2,6-difluorobenzamide]"
11,< 25 nM,"CCc1nc2c(cc1-c1ccc(NC(=O)c3c(F)cccc3F)cc1)oc(=O)n2C [Example 37, N-(4-(5-Ethyl-3-methyl-2-oxo-2,3-dihydrooxazolo [4,5-b]pyridin-6-yl)phenyl)-2,6-difluorobenzamide]"
12,< 25 nM,"Cc1nc2c(cc1-c1ccc(NC(=O)c3c(F)cccc3F)cc1)oc(=O)n2C [Example 38, N-(4-(3,5-dimethyl-2-oxo-2,3-dihydrooxazolo [4,5-b]pyridin-6-yl)phenyl)-2,6-difluorobenzamide]"
13,< 25 nM,"Cn1c(=O)oc2cc(-c3ccc(NC(=O)c4c(F)cccc4F)cc3)c(C3CC3)cc21 [Example 42, N-(4-(5-Cyclopropyl-3-methyl-2-oxo-2,3-dihydrobenzo[d]oxazol-6-yl)phenyl)-2,6-difluorobenzamide]"
14,< 25 nM,"CCc1cc2c(cc1-c1ccc(NC(=O)c3c(F)cccc3F)cc1)oc(=O)n2C [Example 43, N-(4-(5-Ethyl-3-methyl-2-oxo-2,3-dihydrobenzo[d]oxazol-6-yl)phenyl)-2,6-difluorobenzamide]"
